Inhibition data for one molecule are collected here from patent publication US9115137B2, “2,3,4,5-tetrahydro-1H-pyrido[4,3-B]indole compounds and methods of use thereof” (priority 2008, dated 2015).

Assay [1] addresses T1, human recombinant dopamine D2L receptor (Homo sapiens, UniProt P14416).
T1 construct: expressed in transfected cells; host or cells: CHO cells
Briefly: Dopamine D2L radioligand binding ([3H]Spiperone). The conditions noted are these: compound at 1 μM; CHO cells; read-out: Dopamine (1 μM) D2L, percent inhibition of specific binding. In outline: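 CHO cells expressing the receptor, in 50 mM Tris-HCl pH 7.4 with 1.4 mM ascorbic acid, 0.001% BSA, 150 mM NaCl; 0.16 nM [3H]spiperone, 120 min at 25° C, nonspecific binding with 10 μM haloperidol.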

Assay [2] concerns the target T2, human recombinant serotonin (5-Hydroxytryptamine) 5-HT6 receptor (Homo sapiens, UniProt P50406).
T2 construct: expressed in transfected cells; host or cells: human HeLa cells
Briefly: Serotonin 5-HT6 radioligand binding ([3H]LSD). The conditions noted are these: compound at 1 μM; HeLa cells; read-out: Serotonin (1 μM) 5-HT6, percent inhibition of specific binding. The gist of the method: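 HeLa membranes expressing receptor, in 50 mM Tris-HCl pH 7.4 with 150 mM NaCl, 2 mM ascorbate, 0.001% BSA, incubated with 1.5 nM [3H]LSD for 120 min at 37 °C. Nonspecific binding defined with 5 μM 5-HT.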

Assay [3] has as its target T3, human recombinant adrenergic α2A receptor (Homo sapiens, UniProt P08913).
T3 construct: expressed in transfected cells; host or cells: insect Sf9 cells
T3 sequence (P08913 1-465): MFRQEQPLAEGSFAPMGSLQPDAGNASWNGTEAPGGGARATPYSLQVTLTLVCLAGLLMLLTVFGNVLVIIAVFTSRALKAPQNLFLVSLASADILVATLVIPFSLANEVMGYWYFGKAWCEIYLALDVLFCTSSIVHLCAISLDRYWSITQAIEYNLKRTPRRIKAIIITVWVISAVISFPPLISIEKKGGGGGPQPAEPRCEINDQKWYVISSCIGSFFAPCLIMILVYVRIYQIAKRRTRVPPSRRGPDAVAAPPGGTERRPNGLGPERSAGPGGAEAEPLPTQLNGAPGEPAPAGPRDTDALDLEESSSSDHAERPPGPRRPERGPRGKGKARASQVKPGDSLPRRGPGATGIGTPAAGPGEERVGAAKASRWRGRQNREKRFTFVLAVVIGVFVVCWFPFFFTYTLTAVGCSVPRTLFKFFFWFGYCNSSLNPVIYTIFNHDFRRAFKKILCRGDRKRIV
In words: Adrenergic α2A radioligand binding ([3H]MK-912). Conditions: compound at 1 μM; insect Sf9 cells; read-out: Adrenergic (1 μM) α2A, percent inhibition of specific binding. In outline:
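Membranes from Sf9 cells expressing the receptor were incubated with 1 nM [3H]MK-912 for 60 min at 25 °C in Tris-HCl pH 7.4 with MgCl2 and EDTA. Nonspecific binding defined by 10 μM WB-4101; compounds tested at ≤1 μM (1% DMSO), reported as percent inhibition of specific binding.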

Assay [4] concerns the target T4, human recombinant adrenergic α2B receptor (Homo sapiens, UniProt P18089).
T4 construct: expressed in transfected cells; host or cells: CHO-K1 cells
T4 sequence (P18089 1-450): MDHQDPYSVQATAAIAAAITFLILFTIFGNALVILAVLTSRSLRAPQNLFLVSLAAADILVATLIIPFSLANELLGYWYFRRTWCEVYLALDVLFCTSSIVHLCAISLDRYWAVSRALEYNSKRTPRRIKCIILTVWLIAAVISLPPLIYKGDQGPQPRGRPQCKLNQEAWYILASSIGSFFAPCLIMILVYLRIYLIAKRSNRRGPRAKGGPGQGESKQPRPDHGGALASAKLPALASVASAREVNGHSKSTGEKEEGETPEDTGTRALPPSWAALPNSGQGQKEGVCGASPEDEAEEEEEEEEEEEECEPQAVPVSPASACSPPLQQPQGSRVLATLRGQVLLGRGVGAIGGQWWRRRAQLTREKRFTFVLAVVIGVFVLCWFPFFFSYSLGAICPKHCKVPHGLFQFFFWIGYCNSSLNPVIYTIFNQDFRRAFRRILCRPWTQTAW
Briefly: Adrenergic α2B radioligand binding ([3H]Rauwolscine). Conditions: compound at 1 μM; CHO-K1 cells; read-out: Adrenergic (1 μM) α2B, percent inhibition of specific binding. In outline:
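CHO-K1 membranes expressing the receptor were incubated with test compounds (1 μM or lower, 1% DMSO) and 2.5 nM [3H]Rauwolscine for 60 min at 25° C in Tris-HCl pH 7.4 with MgCl2, EDTA and BSA. Bound radioactivity was filtered and counted; nonspecific binding was defined with 10 μM Prazosin, giving percent inhibition of specific binding.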

The structures appear in SMILES notation.

What is called inhibition is how much of the control response was suppressed.

T2 sequence (P50406 whole entry): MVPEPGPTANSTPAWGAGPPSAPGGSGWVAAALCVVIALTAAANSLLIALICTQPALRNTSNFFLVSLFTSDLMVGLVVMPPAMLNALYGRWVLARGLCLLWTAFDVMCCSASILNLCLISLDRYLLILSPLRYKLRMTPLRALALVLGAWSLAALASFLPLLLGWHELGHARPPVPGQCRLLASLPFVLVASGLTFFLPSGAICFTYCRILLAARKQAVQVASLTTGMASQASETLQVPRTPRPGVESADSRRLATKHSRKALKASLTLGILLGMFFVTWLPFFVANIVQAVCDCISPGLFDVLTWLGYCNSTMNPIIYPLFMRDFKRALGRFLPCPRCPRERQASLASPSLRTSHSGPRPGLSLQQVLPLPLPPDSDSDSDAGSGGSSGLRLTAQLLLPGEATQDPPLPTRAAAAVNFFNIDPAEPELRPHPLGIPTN
T1 sequence (P14416 whole entry): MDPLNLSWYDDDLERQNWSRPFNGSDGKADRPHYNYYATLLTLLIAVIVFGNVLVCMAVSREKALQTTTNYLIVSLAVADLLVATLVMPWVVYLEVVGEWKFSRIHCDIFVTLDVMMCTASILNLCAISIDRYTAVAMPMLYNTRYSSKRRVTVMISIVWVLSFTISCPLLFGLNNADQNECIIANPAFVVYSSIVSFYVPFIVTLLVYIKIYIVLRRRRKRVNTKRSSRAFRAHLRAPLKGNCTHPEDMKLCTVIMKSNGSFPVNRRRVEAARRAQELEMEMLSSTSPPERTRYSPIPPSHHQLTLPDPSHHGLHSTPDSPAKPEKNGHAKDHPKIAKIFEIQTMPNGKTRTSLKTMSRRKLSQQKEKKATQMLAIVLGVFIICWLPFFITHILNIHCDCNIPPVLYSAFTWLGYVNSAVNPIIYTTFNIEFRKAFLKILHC

Take `Cc1ccc2c(c1)c1c(n2CCNC(=O)c2ccc(F)cc2Cl)CCN(C)C1` [Compound 63, 2-chloro-4-fluoro-N-(2-(1,2,3,4-tetrahydro-2,8-dimethylpyrido[4,3-b]indol-5-yl)ethyl)benzamide]: the inhibition at 1 µM in assay [1] is 7%; in assay [2], 31%; in assay [3], 65%; in assay [4] it was 98%.
